Test results published in the supplement of paper PMC10307832.

Legend:
Test in all cases: relative viability (nuclei count vs DMSO), 5 days (fraction); higher = more cells survive
IU1-47 + Palbociclib = compound: CC1=CC(=C(N1C2=CC=C(C=C2)Cl)C)C(=O)CN3CCCCC3 [IU1-47] + CC(=O)c1c(C)c2cnc(Nc3ccc(N4CCNCC4)cn3)nc2n(C2CCCC2)c1=O [Palbociclib] (partner 0.5 µM)
Summary of the method: (§1)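 Relative viability divides the nuclei count in treated wells by that in vehicle wells. Lung cancer cell lines were seeded in 1536-well plates, dosed by pin tool the next day, and fixed and stained after 5 days in one step with final 0.05% Triton X-100, 1% formaldehyde and 1 ug/ml Hoechst. Dosing was a single drug or a fixed anchor-drug dose plus five library-drug doses (not always all listed) in √10 steps, and values are medians of duplicate plates imaged at 4×.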

FG-4592 + Palbociclib = compound: Cc1nc(C(=O)NCC(=O)O)c(O)c2ccc(Oc3ccccc3)cc12 [FG-4592] + CC(=O)c1c(C)c2cnc(Nc3ccc(N4CCNCC4)cn3)nc2n(C2CCCC2)c1=O [Palbociclib] (partner 0.5 µM)
Summary of the method: as §1

FG-4592 + Pictilisib = compound: Cc1nc(C(=O)NCC(=O)O)c(O)c2ccc(Oc3ccccc3)cc12 [FG-4592] + CS(=O)(=O)N1CCN(Cc2cc3nc(-c4cccc5[nH]ncc45)nc(N4CCOCC4)c3s2)CC1 [Pictilisib] (partner 1 µM)
Summary of the method: as §1

FG-4592 + Olaparib = compound: Cc1nc(C(=O)NCC(=O)O)c(O)c2ccc(Oc3ccccc3)cc12 [FG-4592] + O=C(c1cc(Cc2n[nH]c(=O)c3ccccc23)ccc1F)N1CCN(C(=O)C2CC2)CC1 [Olaparib] (partner 8 µM)
Summary of the method: as §1

Cell Line | relative viability (IU1-47 + Palbociclib; first compound 0.08 µM) | relative viability (IU1-47 + Palbociclib; first compound 0.253 µM) | relative viability (IU1-47 + Palbociclib; first compound 0.8 µM) | relative viability (IU1-47 + Palbociclib; first compound 8 µM) | relative viability (FG-4592 + Palbociclib; first compound 0.08 µM) | relative viability (FG-4592 + Palbociclib; first compound 0.253 µM) | relative viability (FG-4592 + Palbociclib; first compound 0.8 µM) | relative viability (FG-4592 + Palbociclib; first compound 2.53 µM) | relative viability (FG-4592 + Palbociclib; first compound 8 µM) | relative viability (FG-4592 + Pictilisib; first compound 0.08 µM) | relative viability (FG-4592 + Pictilisib; first compound 0.253 µM) | relative viability (FG-4592 + Pictilisib; first compound 2.53 µM) | relative viability (FG-4592 + Pictilisib; first compound 8 µM) | relative viability (FG-4592 + Olaparib; first compound 2.53 µM) | relative viability (FG-4592 + Olaparib; first compound 8 µM) | relative viability (IU1-47 + Palbociclib; first compound 2.53 µM) | relative viability (FG-4592 + Pictilisib; first compound 0.8 µM) | relative viability (FG-4592 + Olaparib; first compound 0.08 µM) | relative viability (FG-4592 + Olaparib; first compound 0.253 µM) | relative viability (FG-4592 + Olaparib; first compound 0.8 µM)
HARA | 0.231 | 0.316 | 0.239 | 0.221 | 0.276 | 0.191 | 0.261 | 0.286 | 0.25 | 0.329 | 0.292 | 0.46 | 0.304 | 0.738 | 0.987 | – | – | – | – | –
HCC-15 | 0.795 | 0.765 | 0.82 | 0.703 | 0.73 | 0.767 | 0.684 | 0.733 | 0.755 | 0.65 | 0.723 | 0.729 | 0.784 | 0.615 | 0.719 | 0.595 | 0.738 | 0.684 | 0.709 | 0.741
HCC-44 | 1.02 | 0.95 | 0.996 | 1.01 | 0.923 | 0.954 | 0.91 | 0.943 | 0.97 | 0.569 | 0.609 | 0.614 | 0.602 | 1 | 1.01 | 0.993 | 0.498 | 0.971 | 0.921 | 1.03
HCC-78 | 0.474 | 0.441 | 0.5 | 0.457 | 0.468 | 0.486 | 0.465 | 0.453 | 0.438 | 0.219 | 0.248 | 0.222 | 0.225 | 0.759 | 0.733 | 0.507 | 0.182 | 0.717 | – | 0.788
HCC-366 | 0.409 | 0.421 | 0.349 | 0.327 | 0.365 | 0.367 | 0.311 | 0.437 | 0.291 | 0.0934 | 0.104 | 0.151 | 0.113 | 0.435 | 0.296 | 0.546 | 0.23 | 0.331 | 0.353 | 0.352
HCC-827 | 0.553 | 0.497 | 0.534 | 0.535 | 0.438 | 0.417 | 0.402 | 0.507 | 0.467 | 1.05 | 1.04 | 0.875 | 0.834 | 0.705 | 0.729 | 0.551 | 1.07 | 0.591 | 0.624 | 0.625
HOP-62 | 0.515 | 0.524 | 0.483 | 0.452 | 0.393 | 0.439 | 0.365 | 0.407 | 0.37 | 0.831 | 0.55 | 0.651 | 0.657 | 0.383 | 0.338 | 0.499 | 0.455 | 0.373 | 0.561 | 0.496
IA-LM | – | – | – | – | – | – | – | – | – | 0.358 | 0.291 | 0.295 | 0.201 | 0.81 | 0.727 | – | 0.308 | 0.712 | 0.623 | 0.663
LC-2-ad | 0.498 | 0.509 | 0.484 | 0.488 | 0.473 | 0.456 | 0.515 | 0.549 | 0.476 | 0.487 | 0.372 | 0.414 | 0.374 | 0.755 | 0.782 | – | 0.456 | 0.683 | 0.694 | 0.725
LCLC-97TM1 | 0.281 | 0.229 | 0.218 | 0.297 | 0.254 | 0.215 | – | 0.181 | 0.191 | 0.22 | 0.192 | – | 0.169 | 0.329 | 0.421 | – | 0.138 | 0.444 | 0.417 | –
NCI-H522 | 0.987 | 0.988 | 1.36 | 0.956 | 0.97 | 0.884 | – | 1.1 | 0.811 | – | – | – | – | 0.588 | 0.678 | 0.845 | – | 0.766 | 0.644 | –
NCI-H596 | – | – | – | – | – | – | – | – | – | 0.337 | 0.359 | 0.377 | 0.433 | 0.708 | 0.625 | – | – | 0.663 | 0.641 | –
NCI-H1299 | – | – | – | – | – | – | – | – | – | 0.913 | 0.645 | 0.724 | 0.752 | 1.01 | 0.971 | – | 0.915 | 0.935 | 0.906 | 1.01
NCI-H1563 | – | – | – | – | – | – | – | – | – | 0.655 | 0.624 | 0.648 | 0.669 | – | – | – | 0.657 | – | – | –
NCI-H1648 | 0.285 | 0.289 | 0.282 | 0.265 | 0.248 | 0.29 | – | 0.282 | 0.262 | – | – | – | – | 0.483 | 1.43 | 0.249 | – | 0.712 | 0.647 | –
NCI-H1703 | – | – | – | – | – | – | – | – | – | 0.271 | 0.236 | 0.253 | 0.245 | 0.341 | 0.423 | – | 0.218 | 0.428 | 0.337 | 0.336
NCI-H2342 | 0.564 | 0.569 | 0.487 | 0.519 | 0.519 | 0.503 | 0.47 | 0.538 | 0.489 | – | – | – | – | 0.436 | 0.422 | 0.527 | – | 0.433 | 0.436 | 0.452
SW 900 | 0.53 | – | 0.564 | 0.513 | – | 0.525 | – | 0.568 | 0.5 | – | – | – | – | 0.812 | 0.794 | 0.621 | – | – | 0.946 | –
